The text below walks through data of PubChem BioAssay AID1259407 (Chemical Carcinogenesis Research Information System (CCRIS), 2018).

The source made the active and inactive calls. No rule for the calls is given here.

For the data set, the system named is CCRIS mutagenicity, Ames/micronucleus/aberration tests. Kind of data set: CCRIS mutagenicity studies.
[1] abbreviates: Test System: AMES SALMONELLA TYPHIMURIUM, Strain/Indicator: TA1535, Metabolic Activation: NONE, Method: PREINCUBATION
Setting [2] is: Test System: AMES SALMONELLA TYPHIMURIUM, Strain/Indicator: TA1535, Metabolic Activation: RAT, LIVER, S-9, AROCLOR 1254, Method: PREINCUBATION

Turning to `C=CCCl`, the mutagenic call is, setting by setting: (End Point: IN VITRO CHROMOSOMAL ABERRATIONS, Test System: CHL CELLS, Metabolic Activation: RAT, LIVER, S-9, SODIUM PHENOBARBITAL AND 5,6-BENZOFLAVONE) “active; positive (structural changes); authors report equivocal results for ploidy chang”; (Test System: AMES SALMONELLA TYPHIMURIUM, Strain/Indicator: TA100, Metabolic Activation: NONE, Method: DESICCATOR) “active; positive”; (Test System: AMES SALMONELLA TYPHIMURIUM, Strain/Indicator: TA100, Metabolic Activation: NONE, Method: PREINCUBATION (20-180 MIN)) “inactive; negative”; (Test System: AMES SALMONELLA TYPHIMURIUM, Strain/Indicator: TA100, Metabolic Activation: RAT, LIVER, S-9, AROCLOR 1254 (4 OR 12 MG/ML PROTEIN), Method: PREINCUBATION (20 OR 60 MIN)) “inactive; negative”; (Test System: AMES SALMONELLA TYPHIMURIUM, Strain/Indicator: TA100, Metabolic Activation: RAT, LIVER, S-9, AROCLOR 1254 (4 OR 12 MG/ML PROTEIN), Method: PREINCUBATION (120 OR 180 MIN)) “active; positive”; (Test System: AMES SALMONELLA TYPHIMURIUM, Strain/Indicator: TA100, Metabolic Activation: RAT, LIVER, S-9, AROCLOR 1254, SERUM ALBUMIN (4 MG/ML) (8 MG/ML PROTEIN), Method: PREINCUBATION (120 MIN)) “inactive; negative”. Moreover, the mutagenic call was “active; positive” (Test System: AMES SALMONELLA TYPHIMURIUM, Strain/Indicator: TA100, Metabolic Activation: RAT, LIVER, S-9, AROCLOR 1254, Method: DESICCATOR); “inactive; negative” (Test System: AMES SALMONELLA TYPHIMURIUM, Strain/Indicator: TA102, Metabolic Activation: S-9, Method: STANDARD PLATE); “active; positive” (Test System: AMES SALMONELLA TYPHIMURIUM, Strain/Indicator: TA1535, Metabolic Activation: NONE, Method: DESICCATOR); “active; positive” under setting [1]; “active; positive” (Test System: AMES SALMONELLA TYPHIMURIUM, Strain/Indicator: TA1535, Metabolic Activation: RAT, LIVER, S-9, AROCLOR 1254, Method: DESICCATOR); “active; positive” under setting [2]. In addition, the mutagenic call runs as follows: (Test System: AMES SALMONELLA TYPHIMURIUM, Strain/Indicator: TA2638, Metabolic Activation: S-9, Method: STANDARD PLATE) “inactive; negative”; (Test System: Ames Salmonella typhimurium, Strain/Indicator: TA98, Metabolic Activation: Rat, Liver, S9, Sodium phenobarbital and 5,6-benzoflavone (10%), Method: Preincubation) “inactive; negative”; (Test System: Ames Salmonella typhimurium, Strain/Indicator: TA100, Metabolic Activation: Rat, Liver, S9, Sodium phenobarbital and 5,6-benzoflavone (10%), Method: Preincubation) “inactive; negative”; (Test System: Ames Salmonella typhimurium, Strain/Indicator: TA1537, Metabolic Activation: None, Method: Preincubation) “inactive; negative”; (Test System: Ames Salmonella typhimurium, Strain/Indicator: TA1537, Metabolic Activation: Rat, Liver, S9, Sodium phenobarbital and 5,6-benzoflavone (10%), Method: Preincubation) “inactive; negative”; (Test System: Ames Salmonella typhimurium, Strain/Indicator: YG7108, Metabolic Activation: None, Method: Standard plate) “inactive; positive (negative when allyl chloride dissolved in water)”. The mutagenic call reads like this: (Test System: Ames Salmonella typhimurium, Strain/Indicator: YG7108, Metabolic Activation: Rat, Liver, S-9, Phenobarbital/beta-naphthoflavone, Method: Standard plate) “active; positive”; (Test System: Ames Salmonella typhimurium, Strain/Indicator: YG7108pin3ERb5, Metabolic Activation: None, Method: Standard plate) “active; positive”; (Test System: E. COLI, Strain/Indicator: WP2 (PKM101), Metabolic Activation: S-9, Method: STANDARD PLATE) “inactive; negative”; (Test System: E. COLI, Strain/Indicator: WP2 UVRA (PKM101), Metabolic Activation: S-9, Method: STANDARD PLATE) “inactive; negative”.
For `CC(O)c1ccccc1` (stereo not drawn), the mutagenic call reads like this: (Test System: AMES SALMONELLA TYPHIMURIUM, Strain/Indicator: TA98, Metabolic Activation: HAMSTER, LIVER, S-9, AROCLOR 1254 (10%), Method: PREINCUBATION) “inactive; negative”; (Test System: AMES SALMONELLA TYPHIMURIUM, Strain/Indicator: TA98, Metabolic Activation: HAMSTER, LIVER, S-9, AROCLOR 1254, Method: PREINCUBATION) “inactive; negative”; (Test System: AMES SALMONELLA TYPHIMURIUM, Strain/Indicator: TA98, Metabolic Activation: NONE, Method: PREINCUBATION) “inactive; negative”; (Test System: AMES SALMONELLA TYPHIMURIUM, Strain/Indicator: TA98, Metabolic Activation: RAT, LIVER, S-9, AROCLOR 1254 (10%), Method: PREINCUBATION) “inactive; negative”; (Test System: AMES SALMONELLA TYPHIMURIUM, Strain/Indicator: TA98, Metabolic Activation: RAT, LIVER, S-9, AROCLOR 1254, Method: PREINCUBATION) “inactive; negative”; (Test System: AMES SALMONELLA TYPHIMURIUM, Strain/Indicator: TA100, Metabolic Activation: HAMSTER, LIVER, S-9, AROCLOR 1254 (10%), Method: PREINCUBATION) “inactive; negative”. The mutagenic call is, setting by setting: (Test System: AMES SALMONELLA TYPHIMURIUM, Strain/Indicator: TA100, Metabolic Activation: HAMSTER, LIVER, S-9, AROCLOR 1254, Method: PREINCUBATION) “inactive; negative”; (Test System: AMES SALMONELLA TYPHIMURIUM, Strain/Indicator: TA100, Metabolic Activation: NONE, Method: PREINCUBATION) “inactive; negative”; (Test System: AMES SALMONELLA TYPHIMURIUM, Strain/Indicator: TA100, Metabolic Activation: RAT, LIVER, S-9, AROCLOR 1254 (10%), Method: PREINCUBATION) “inactive; negative”; (Test System: AMES SALMONELLA TYPHIMURIUM, Strain/Indicator: TA100, Metabolic Activation: RAT, LIVER, S-9, AROCLOR 1254, Method: PREINCUBATION) “inactive; negative”; (Test System: AMES SALMONELLA TYPHIMURIUM, Strain/Indicator: TA1535, Metabolic Activation: HAMSTER, LIVER, S-9, AROCLOR 1254 (10%), Method: PREINCUBATION) “inactive; negative”; (Test System: AMES SALMONELLA TYPHIMURIUM, Strain/Indicator: TA1535, Metabolic Activation: HAMSTER, LIVER, S-9, AROCLOR 1254, Method: PREINCUBATION) “inactive; negative”. In addition, the mutagenic call by setting is: under setting [1], “inactive; negative”; (Test System: AMES SALMONELLA TYPHIMURIUM, Strain/Indicator: TA1535, Metabolic Activation: RAT, LIVER, S-9, AROCLOR 1254 (10%), Method: PREINCUBATION) “inactive; negative”; under setting [2], “inactive; negative”; (Test System: AMES SALMONELLA TYPHIMURIUM, Strain/Indicator: TA1537, Metabolic Activation: HAMSTER, LIVER, S-9, AROCLOR 1254 (10%), Method: PREINCUBATION) “inactive; negative”; (Test System: AMES SALMONELLA TYPHIMURIUM, Strain/Indicator: TA1537, Metabolic Activation: HAMSTER, LIVER, S-9, AROCLOR 1254, Method: PREINCUBATION) “inactive; negative”; (Test System: AMES SALMONELLA TYPHIMURIUM, Strain/Indicator: TA1537, Metabolic Activation: NONE, Method: PREINCUBATION) “inactive; negative”. The mutagenic call (Test System: AMES SALMONELLA TYPHIMURIUM, Strain/Indicator: TA1537, Metabolic Activation: RAT, LIVER, S-9, AROCLOR 1254 (10%), Method: PREINCUBATION) is “inactive; negative”; the mutagenic call (Test System: AMES SALMONELLA TYPHIMURIUM, Strain/Indicator: TA1537, Metabolic Activation: RAT, LIVER, S-9, AROCLOR 1254, Method: PREINCUBATION) is “inactive; negative”; the mutagenic call (Test System: MOUSE LYMPHOMA, Strain/Indicator: L5178Y (TK+/TK-), Metabolic Activation: NONE, Method: SUSPENSION/PLATE) was “active; positive”.
